Measurements as given in PubChem BioAssay AID330 (DTP/NCI, 2004).
Values joined by “and” are separate entries in the source; they are usually repeats but may differ in a detail not shown here. Equal values may be shown once. Inconclusive results and toxic doses are left out. Rule for the calls: active = survival T/C of 150% or more; inactive = T/C below 125% in these data.

Test system: P388 leukemia ip, CD2F1 mice, survival T/C
Experiment: NCI In Vivo Anticancer Drug Screen. Data for tumor model P388 Leukemia (intraperitoneal) in CD2F1 (CDF1) mice
Details: endpoint: median survival time, higher = longer survival
In short: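 Mice carrying the transplanted tumor received test compound or vehicle. Survival was recorded in each group, and the value is the treated-group measurement divided by that of the vehicle-treated control group.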

[1] = dose: 60.0 mg/kg/injection, schedule: Q01DX005 (ip), vehicle: saline with Tween-80
[2] = dose: 120.0 mg/kg/injection, schedule: Q01DX005 (ip), vehicle: saline with Tween-80
[3] = dose: 240.0 mg/kg/injection, schedule: Q01DX005 (ip), vehicle: saline with Tween-80
[4] = dose: 25.0 mg/kg/injection, schedule: Q01DX009 (ip), vehicle: Klucel (hydroxypropylcellulose) (HPC)
[5] = dose: 100.0 mg/kg/injection, schedule: Q01DX005 (ip), vehicle: Klucel (hydroxypropylcellulose) (HPC)
[6] = dose: 50.0 mg/kg/injection, schedule: Q01DX009 (ip), vehicle: saline with Tween-80
[7] = dose: 12.5 mg/kg/injection, schedule: Q01DX009 (ip), vehicle: saline
[8] = dose: 25.0 mg/kg/injection, schedule: Q01DX009 (ip), vehicle: saline
[9] = dose: 50.0 mg/kg/injection, schedule: Q01DX009 (ip), vehicle: saline
[10] = dose: 6.25 mg/kg/injection, schedule: Q01DX009 (ip), vehicle: saline with Tween-80
[11] = dose: 12.5 mg/kg/injection, schedule: Q01DX009 (ip), vehicle: saline with Tween-80
[12] = dose: 25.0 mg/kg/injection, schedule: Q01DX009 (ip), vehicle: saline with Tween-80
[13] = dose: 200.0 mg/kg/injection, schedule: Q01DX009 (ip), vehicle: saline
[14] = dose: 60.0 mg/kg/injection, schedule: Q01DX005 (ip), vehicle: Klucel (hydroxypropylcellulose) (HPC)
[15] = dose: 120.0 mg/kg/injection, schedule: Q01DX005 (ip), vehicle: Klucel (hydroxypropylcellulose) (HPC)
[16] = dose: 240.0 mg/kg/injection, schedule: Q01DX005 (ip), vehicle: Klucel (hydroxypropylcellulose) (HPC)
[17] = dose: 50.0 mg/kg/injection, schedule: Q01DX005 (ip), vehicle: saline with Tween-80
[18] = dose: 100.0 mg/kg/injection, schedule: Q01DX005 (ip), vehicle: saline with Tween-80
[19] = dose: 100.0 mg/kg/injection, schedule: Q01DX001 (ip), vehicle: saline with Tween-80
[20] = dose: 200.0 mg/kg/injection, schedule: Q01DX001 (ip), vehicle: saline with Tween-80

Measured: T/C

C[N+](C)=c1ccc2nc3c(cc(NCCCNc4cc5oc6cc(=[N+](C)C)ccc-6nc5c5ccccc45)c4ccccc43)oc-2c1
inactive: [1] 106 % of control | [2] 113 % of control | [3] 103 % of control

CCCC(NC(=O)OCc1ccccc1)C(=O)NC(C)C(=O)O (stereo not drawn)
inactive: [4] 104 % of control | dose: 50.0 mg/kg/injection, schedule: Q01DX009 (ip), vehicle: Klucel (hydroxypropylcellulose) (HPC) 105 % of control | [5] 100 % of control | dose: 100.0 mg/kg/injection, schedule: Q01DX009 (ip), vehicle: Klucel (hydroxypropylcellulose) (HPC) 106 % of control

CCOC(=O)c1c(NC(=S)NC)sc2c1CCCC2
inactive: [6] 106 % of control | dose: 100.0 mg/kg/injection, schedule: Q01DX009 (ip), vehicle: saline with Tween-80 108 % of control | dose: 200.0 mg/kg/injection, schedule: Q01DX009 (ip), vehicle: saline with Tween-80 91 % of control

CC12CC(=O)CC1(C)CC(=O)C2 (stereo not drawn)
inactive: [7] 92 % of control | [8] 92 % of control | [9] 86 % of control and 97 % of control

ClCCN(CCCl)CCNc1ccnc2cc(Cl)ccc12
inactive: dose: 0.1 mg/kg/injection, schedule: Q01DX009 (ip), vehicle: saline 104 % of control | dose: 0.2 mg/kg/injection, schedule: Q01DX009 (ip), vehicle: saline 90 % of control | dose: 0.38 mg/kg/injection, schedule: Q01DX009 (ip), vehicle: saline 114 % of control | dose: 0.5 mg/kg/injection, schedule: Q01DX009 (ip), vehicle: saline sonified 90 % of control | dose: 0.58 mg/kg/injection, schedule: Q01DX009 (ip), vehicle: saline 114 % of control | dose: 0.88 mg/kg/injection, schedule: Q04DX003 (ip), vehicle: saline 118 % of control | dose: 1.0 mg/kg/injection, schedule: Q01DX009 (ip), vehicle: saline sonified 118 % of control | dose: 2.0 mg/kg/injection, schedule: Q04DX003 (ip), vehicle: saline 118 % of control
active: dose: 4.4 mg/kg/injection, schedule: Q01DX009 (ip), vehicle: saline 166 % of control

CCN(CCO)C(=O)Nc1ccc(Cl)cc1
inactive: dose: 60.0 mg/kg/injection, schedule: Q01DX005 (ip), vehicle: Klucel + Tween-80 99 % of control | dose: 120.0 mg/kg/injection, schedule: Q01DX005 (ip), vehicle: Klucel + Tween-80 101 % of control | dose: 240.0 mg/kg/injection, schedule: Q01DX005 (ip), vehicle: Klucel + Tween-80 100 % of control

COc1ccc2c3c([nH]c2c1[N+](=O)[O-])C(C)N(S(=O)(=O)c1ccccc1)CC3 (stereo not drawn)
inactive: dose: 8.5 mg/kg/injection, schedule: Q01DX005 (ip), vehicle: Klucel (hydroxypropylcellulose) (HPC) 95 % of control | dose: 17.0 mg/kg/injection, schedule: Q01DX005 (ip), vehicle: Klucel (hydroxypropylcellulose) (HPC) 97 % of control | dose: 34.0 mg/kg/injection, schedule: Q01DX005 (ip), vehicle: Klucel (hydroxypropylcellulose) (HPC) 104 % of control | dose: 68.0 mg/kg/injection, schedule: Q01DX005 (ip), vehicle: Klucel (hydroxypropylcellulose) (HPC) 95 % of control | dose: 136.0 mg/kg/injection, schedule: Q01DX005 (ip), vehicle: Klucel (hydroxypropylcellulose) (HPC) 89 % of control

CCC(C(=O)Nc1ccccc1-c1ccccc1)c1ccccc1 (stereo not drawn)
inactive: [10] 110 % of control | [11] 101 % of control | [12] 96 % of control | dose: 100.0 mg/kg/injection, schedule: Q01DX009 (ip), vehicle: saline 96 % of control | [13] 87 % of control

Cn1c(=O)c2c(nc(NCC[N+](C)(C)Cc3ccc(Cl)cc3)n2C)n(C)c1=O
inactive: dose: 6.25 mg/kg/injection, schedule: Q01DX009 (ip), vehicle: Klucel (hydroxypropylcellulose) (HPC) 93 % of control | dose: 12.5 mg/kg/injection, schedule: Q01DX009 (ip), vehicle: Klucel (hydroxypropylcellulose) (HPC) 101 % of control | [4] 113 % of control and 94 % of control

CCn1c(=O)c(C#N)c2n(CC)c3ccccc3n2c1=O
inactive: dose: 3.75 mg/kg/injection, schedule: Q01DX005 (ip), vehicle: saline with Tween-80 100 % of control | dose: 7.5 mg/kg/injection, schedule: Q01DX005 (ip), vehicle: saline with Tween-80 100 % of control | dose: 15.0 mg/kg/injection, schedule: Q01DX005 (ip), vehicle: saline with Tween-80 100 % of control

COc1ccc(CCNCC(O)CO/N=C(\C)c2ccc(N(C)C)cc2)cc1OC (stereo not drawn)
inactive: [14] 104 % of control | [15] 101 % of control | [16] 97 % of control

CCCOn1nnc2cc(Cl)ccc21
inactive: [10] 102 % of control | [11] 96 % of control | [12] 99 % of control

CC(NC(=O)OC(C)(C)C)C(=O)NC(C)C(=O)OCc1ccccc1 (stereo not drawn)
inactive: [17] 99 % of control | [18] 89 % of control and 105 % of control | dose: 200.0 mg/kg/injection, schedule: Q01DX005 (ip), vehicle: saline with Tween-80 92 % of control

CC12CCC(O)CC1CCC1C2CCC2(C)C(c3ccc(=O)oc3)CCC12O (stereo not drawn)
inactive: dose: 0.31 mg/kg/injection, schedule: Q01DX009 (ip), vehicle: saline with Tween-80 100 % of control | dose: 0.62 mg/kg/injection, schedule: Q01DX009 (ip), vehicle: saline with Tween-80 97 % of control | dose: 1.25 mg/kg/injection, schedule: Q01DX009 (ip), vehicle: saline with Tween-80 97 % of control | dose: 2.5 mg/kg/injection, schedule: Q01DX009 (ip), vehicle: saline with Tween-80 103 % of control

COCOC(/C=C/C=C/CCCCOCc1ccccc1)CCC/C=C(\C)CO (stereo not drawn)
inactive: dose: 50.0 mg/kg/injection, schedule: Q01DX001 (ip), vehicle: saline with Tween-80 104 % of control | [19] 102 % of control | [20] 103 % of control

CN1C(=S)C(=N)OC1c1ccccc1F (stereo not drawn)
inactive: [14] 106 % of control | [15] 105 % of control | [16] 103 % of control

S=c1[nH]c2cc(Cl)ccc2o1
inactive: [10] 108 % of control | [11] 96 % of control | [12] 117 % of control | [6] 105 % of control

C=C1C(=O)OC2CC3(C)C=CC(=O)C(=C)C3CC12 (stereo not drawn)
inactive: dose: 12.5 mg/kg/injection, schedule: Q04DX003 (ip), vehicle: Klucel (hydroxypropylcellulose) (HPC) 104 % of control | dose: 25.0 mg/kg/injection, schedule: Q04DX003 (ip), vehicle: Klucel (hydroxypropylcellulose) (HPC) 114 % of control

CCOP(=O)(CC(=O)c1cc2ccccc2[nH]1)OCC
inactive: [7] 100 % of control | [8] 92 % of control | [9] 106 % of control and 95 % of control | [13] 97 % of control

CC12N=C1CCCCCCCCCCCC2=O (stereo not drawn)
inactive: [1] 101 % of control | [2] 100 % of control | [3] 108 % of control

CCCCCC(=O)C(C)(c1nc2nnc(NC(=O)Nc3ccc(Cl)cc3)n2[nH]c1=O)c1nc2nnc(NC(=O)Nc3ccc(Cl)cc3)n2[nH]c1=O
inactive: [1] 103 % of control | [2] 98 % of control | [3] 97 % of control

NC(CSC(c1ccccc1)c1ccccc1)C(=O)NCC(=O)O (stereo not drawn)
inactive: dose: 50.0 mg/kg/injection, schedule: Q01DX005 (ip), vehicle: Klucel (hydroxypropylcellulose) (HPC) 99 % of control | [5] 99 % of control | dose: 200.0 mg/kg/injection, schedule: Q01DX005 (ip), vehicle: Klucel (hydroxypropylcellulose) (HPC) 104 % of control

COc1ccc(O)cc1
inactive: dose: 12.5 mg/kg/injection, schedule: Q01DX005 (ip), vehicle: saline with Tween-80 104 % of control | dose: 25.0 mg/kg/injection, schedule: Q01DX005 (ip), vehicle: saline with Tween-80 99 % of control | [17] 99 % of control | [19] 101 % of control | [18] 99 % of control | [20] 102 % of control

O=C(O)C(Cc1ccccc1)NC(c1ccc(Cl)cc1)P(=O)(O)O (stereo not drawn)
inactive: [1] 98 % of control | [2] 105 % of control | [3] 97 % of control
